Reference: the OPERA property sets (Mansouri et al. 2018)

Conditions: for log10 BCF / log10 biotransformation half-life (days): fish

Row | Structure (SMILES) | boiling point [°C] | melting point [°C] | further results
1 | CC(C)CCOC(=O)C(C)O (centres undefined) | 202 | – | –
2 | CCCCCCCCC=CCCCCCCCC(=O)N(C)CCS(=O)(=O)[O][Na] | – | – | ready biodegradability: readily biodegradable
3 | CC1(C)NC(=O)NC1=O | – | 178 | –
4 | Cc1cccc(Oc2cccc(C)c2)c1 | 284 | – | –
5 | FC(F)(F)S(F)(F)(F)(F)F | -20 | -87 | –
6 | CC[C@H]1CC[C@H](C)C1 | 121 | -108 | –
7 | CCC(CC1CCCCC1)CC1CCCCC1 | 306 | – | –
8 | CC1=CC(=O)NS(=O)(=O)O1 | – | 123 | –
9 | O=[N+]([O-])c1ccc(N=Nc2ccccc2)cc1 | – | 133 | log10 vapour pressure (mmHg): -5.93
10 | CCCCCCCCCCCCCCCC(=O)NCCO | – | 98.5 | –
11 | Oc1ccc(Sc2ccc(O)cc2)cc1 | – | 155 | –
12 | CNC(C)CC1CCCCC1 (centres undefined) | 205 | – | –
13 | CCCC(=O)OCCC(C)C | 179 | -73.2 | log10 vapour pressure (mmHg): -0.0223
14 | Cc1c(O)cccc1Cl | 225 | 86 | –
15 | BrCBr | 97 | -52.5 | log10 Henry constant (atm·m³/mol): -3.09; log10 Koa: 3.07; log10 vapour pressure (mmHg): 1.65
16 | CC(=O)Nc1ccccc1C(=O)O | – | 186 | –
17 | NC(=S)N=C(N)N | – | 172 | –
18 | N#Cc1cccc(C=O)c1 | 210 | 76.5 | –
19 | CCCN(CCC)C(C)=O | 210 | – | –
20 | CCCCCCCCOC(=O)CCCCCC | 290 | -22.5 | –
21 | CCCCCCCCCCCCCCCCC(=O)OC | – | 30 | –

Row | Structure (SMILES) | boiling point [°C] | melting point [°C] | further results
22 | O=C(O)c1cc(O)cc(C(=O)O)c1 | – | 293 | –
23 | C1=CC=CCCC=C1 | 146 | – | –
24 | c1ccc(-c2c3ccccc3nc3ccccc23)cc1 | 404 | 184 | –
25 | c1ccc(Cc2ccncc2)cc1 | 288 | 12.4 | –
26 | CC/C=C\CCCC | 123 | -118 | –
27 | O=C(C1CCCCC1)N1CC(=O)N2CCc3ccccc3C2C1 (centres undefined) | – | 136 | –
28 | CCCCC(CC)CO[Si](OCC(CC)CCCC)(OCC(CC)CCCC)OCC(CC)CCCC (centres undefined) | 419 | – | –
29 | NS(=O)(=O)c1ccc(SCCO)c([N+](=O)[O-])c1 | – | 151 | –
30 | ClC(Br)(Br)Br | 158 | 55 | –
31 | CCCCCCCCCCCCC#N | 293 | 9.7 | –
32 | C=CCOCC | 67.6 | – | log10 vapour pressure (mmHg): 2.18
33 | CCCCCCCCCCF | 186 | -35 | log10 vapour pressure (mmHg): -0.203
34 | Cc1ccc(NC(=O)c2ccccc2)cc1 | – | 158 | –
35 | CC(=O)OC1CC(C)OC(C)O1 (centres undefined) | – | – | ready biodegradability: readily biodegradable
36 | O=C(Cl)c1ccccc1O | – | 19 | –
37 | C=C1/C(=C\C=C2/CCC[C@]3(C)[C@@H]([C@H](C)CCCC(C)(C)O)CC[C@@H]23)C[C@@H](O)C[C@@H]1O | – | 115 | –
38 | Clc1cc2oc3cc(Cl)c(Cl)c(Cl)c3c2cc1Cl | – | 225 | log10 vapour pressure (mmHg): -8.76; log10 BCF: 3.58
39 | CC(C)CO | – | – | log10 Henry constant (atm·m³/mol): -5.01; log10 Koa: 3.93; log10 vapour pressure (mmHg): 1.02; ready biodegradability: readily biodegradable
40 | FC(F)(F)C(F)(F)C(F)(F)C(F)(F)C(F)(F)C(F)(F)C(F)(F)C(F)(F)C(F)(F)I | 181 | – | –
41 | COC(=O)c1ccc(Cl)cc1 | – | 43.5 | –
42 | N#Cc1nn(-c2c(Cl)cc(C(F)(F)F)cc2Cl)c(N)c1S(=O)C(F)(F)F (centres undefined) | – | 200 | log10 vapour pressure (mmHg): -8.56; log10 biotransformation half-life (days): -0.21

Row | Structure (SMILES) | boiling point [°C] | melting point [°C] | further results
43 | C1=C(c2ccccc2)CCCC1 | 252 | -11 | –
44 | C=C(C)[C@H]1Cc2c(cc(O)c3c2O[C@@H]2COc4cc(OC)c(OC)cc4[C@@H]2C3=O)O1 | – | 195 | –
45 | C=CC(C)(C)O | 97 | -28 | log10 Henry constant (atm·m³/mol): -4.68
46 | CCCCCCCOC(=O)CCCCCC | 277 | -33 | –
47 | Cc1cccc(OCC(O)CNC(C)C)c1 (centres undefined) | – | 76 | –
48 | COc1ccc(N=Nc2ccccc2)cc1 | 340 | 56 | –
49 | OCc1ccc(Cl)cc1Cl | – | 59.5 | ready biodegradability: readily biodegradable
50 | O=C1CCC(=O)N1I | – | 204 | –
51 | COP(=S)(OC)Oc1ccc(C#N)cc1 | – | 14.5 | log10 vapour pressure (mmHg): -3.1; ready biodegradability: not readily biodegradable; log10 BCF: 1.56; log10 biotransformation half-life (days): 0.23
52 | COC(=O)CCCCCC(=O)OC | – | -21 | –
53 | CCNCCO | 170 | – | –
54 | Cc1ccc(C(F)(F)F)cc1 | 129 | – | –
55 | O=C(O)c1cc([N+](=O)[O-])cc([N+](=O)[O-])c1O | – | 170 | –
56 | OCc1ccccc1Cl | 230 | 73 | –
57 | COS(=O)(=O)[O-].C[N+]1(C)CCN(CC(O)(c2ccccc2)C2CCCCC2)CC1 (centres undefined) | – | 205 | –
58 | CCC(=O)C1CCCCC1 | 196 | – | –
59 | NCCCO | 188 | 11 | log10 vapour pressure (mmHg): -1.11
60 | C[C@H](Oc1ccc(Oc2nc3ccc(Cl)cc3o2)cc1)C(=O)O | – | 158 | –
61 | Nc1cc(Cl)ccc1O | – | 140 | –
62 | Clc1cc(Cl)c2c(Cl)c(Cl)cc(Cl)c2c1Cl | – | – | log10 Koa: 9.69; log10 vapour pressure (mmHg): -6.46
63 | N#CCCNc1ccccc1 | – | 52.5 | –
